Measured values taken from patent US20240246933A1, “CRYSTALLINE FORM OF TRICYCLIC DERIVATIVE COMPOUND, METHOD FOR PREPARING SAME, AND PHARMACEUTICAL COMPOSITION COMPRISING SAME” (ONCONIC THERAPEUTICS INC., priority 2021, published 2024).
pIC50: −log10 of the molar value. Where a name gives a salt, the structure may show the parent alone.

Legend:
tankyrase-1 enzyme = tankyrase-1 enzyme (Homo sapiens, UniProt O95271); assay: biochemical
Procedure: (§1) Histones were coated on a 96-well plate provided from BPS Bioscience's kit and left at 4 °C for 16 hours. […] After 1 hour, each well was washed 4 times with PBST, and streptavidin-linked peroxidase (Strep-HRP, 1:50 dilution) was added thereto to measure the amount of ribosylation by PARP enzyme, and reacted at 25° C. for 30 minutes. The plate was washed 4 times with PBST, and then HRP chemiluminescent substrate was finally added thereto and reacted. The amount of histone ribosylation formed by each enzyme was quantified using a Synergy™ H4 Hybrid Multi-Mode Microplate Reader (BioTek Instruments, Inc., US (A)).

tankyrase-2 enzyme = biological target: T1, tankyrase-2 enzyme (Homo sapiens, UniProt Q9H2K2); assay: Inhibition test of tankyrase-2 enzyme (BPS Bioscience kit); format: biochemical; details: tankyrase-2 enzyme 15 ng/well, 25° C. for 1 hour; read-out: IC50 (tankyrase-2 enzyme inhibitory activity)
T1 construct: purchased BPS Bioscience 80578
Procedure: as §1

[1] = Measurement of solubility in water (shake-flask, UPLC); format: physicochemical
Procedure: Compounds are dissolved in DMSO and measured by UPLC, and then a calibration curve is drawn. The compounds saturated by the Shake-flask method are filtered and then measured by UPLC, and it is substituted into a calibration curve to calculate the concentration.

[2] = Measurement of solubility in various solvents; format: physicochemical; details: 0.1 g of sample, 15 to 25° C., within 30 minutes, listed as Crystalline anhydride of citrate in Example 2
Procedure: Specifically, 0.1 g of sample was accurately weighed, put into each solvent, and shaken and mixed vigorously for 30 seconds every 5 minutes at 15 to 25° C., and the amount dissolved within 30 minutes was measured.

PARP-1 enzyme = PARP-1 enzyme (Homo sapiens, UniProt P09874); assay: Inhibition test of poly (ADP-ribose) polymerase [PARP-1] enzyme (BPS Bioscience kit)
Procedure: Histones were coated on a 96-well plate provided from BPS Bioscience's kit and left at 4° C. for 16 hours. […] After 1 hour, each well was washed 4 times with PBST, and streptavidin-linked peroxidase (Strep-HRP, 1:50 dilution) was added thereto to measure the amount of ribosylation by PARP enzyme, and reacted at 25° C. for 30 minutes. The plate was washed 4 times with PBST, and then HRP chemiluminescent substrate was finally added thereto and reacted. The amount of histone ribosylation formed by each enzyme was quantified using a Synergy™ H4 Hybrid Multi-Mode Microplate Reader (BioTek Instruments, Inc., US (A)).

[3] = Stability of the addition salt of Compound 1 (temperature, humidity, light; purity by HPLC); format: physicochemical
Procedure: The stability of crystals of the addition salt of Compound 1 prepared in the Examples and Comparative Examples above was confirmed, and the results are shown in Table 5 below.
Experiments according to temperature, humidity and light conditions were carried out by a method of confirming purity by HPLC after storage in a stability chamber under each condition.
Each sample was spread thinly in a Petri dish, and then the stability was evaluated after irradiation with UV light having a light intensity of 35 W to a total irradiation amount of 200 watts under conditions of 25° C. and 60% humidity using a photostability test chamber (CARON 6542-2).
Each sample was spread thinly in a Petri dish, and then the stability was evaluated after irradiation with visible light having a light intensity of 35 k Lux to a total irradiation amount of 1200 k lux under conditions of 25° C. and 60% humidity using a photostability test chamber (CARON 6542-2).

[4] = Purity and stability under accelerated and long-term storage conditions (HPLC); format: physicochemical; details: for Purity under long-term storage conditions (area %) / Long-term storage conditions (related substances) (area %): 25±2° C., humidity 60±5%; for Purity under accelerated storage conditions (area %) / Accelerated storage conditions (related substances) (area %): 40±2° C., humidity 75±5%
Procedure: The purity and stability of the crystalline anhydride of the citrate prepared in Example 2 and the crystalline monohydrate of the citrate prepared in Example 3 according to the present invention were evaluated, and the results are shown in Tables 8 and 9 below.
In the tables below, stability tests were conducted under accelerated storage conditions of a temperature of 40±2° C. and humidity of 75±5%, and purity and stability tests were conducted under long-term storage conditions of a temperature of 25±2° C. and humidity of 60±5%. Experimental results were measured under the same conditions as in Experimental Example 1 using HPLC (product name: agilent 1290, manufacturer: Agilent).

[5] = 3 months, listed as Crystalline anhydride of citrate in Example 2
[6] = 6 months, listed as Crystalline anhydride of citrate in Example 2
[7] = initial, listed as Crystalline anhydride of citrate in Example 2

Sequence of PARP-1 enzyme (P09874 whole entry): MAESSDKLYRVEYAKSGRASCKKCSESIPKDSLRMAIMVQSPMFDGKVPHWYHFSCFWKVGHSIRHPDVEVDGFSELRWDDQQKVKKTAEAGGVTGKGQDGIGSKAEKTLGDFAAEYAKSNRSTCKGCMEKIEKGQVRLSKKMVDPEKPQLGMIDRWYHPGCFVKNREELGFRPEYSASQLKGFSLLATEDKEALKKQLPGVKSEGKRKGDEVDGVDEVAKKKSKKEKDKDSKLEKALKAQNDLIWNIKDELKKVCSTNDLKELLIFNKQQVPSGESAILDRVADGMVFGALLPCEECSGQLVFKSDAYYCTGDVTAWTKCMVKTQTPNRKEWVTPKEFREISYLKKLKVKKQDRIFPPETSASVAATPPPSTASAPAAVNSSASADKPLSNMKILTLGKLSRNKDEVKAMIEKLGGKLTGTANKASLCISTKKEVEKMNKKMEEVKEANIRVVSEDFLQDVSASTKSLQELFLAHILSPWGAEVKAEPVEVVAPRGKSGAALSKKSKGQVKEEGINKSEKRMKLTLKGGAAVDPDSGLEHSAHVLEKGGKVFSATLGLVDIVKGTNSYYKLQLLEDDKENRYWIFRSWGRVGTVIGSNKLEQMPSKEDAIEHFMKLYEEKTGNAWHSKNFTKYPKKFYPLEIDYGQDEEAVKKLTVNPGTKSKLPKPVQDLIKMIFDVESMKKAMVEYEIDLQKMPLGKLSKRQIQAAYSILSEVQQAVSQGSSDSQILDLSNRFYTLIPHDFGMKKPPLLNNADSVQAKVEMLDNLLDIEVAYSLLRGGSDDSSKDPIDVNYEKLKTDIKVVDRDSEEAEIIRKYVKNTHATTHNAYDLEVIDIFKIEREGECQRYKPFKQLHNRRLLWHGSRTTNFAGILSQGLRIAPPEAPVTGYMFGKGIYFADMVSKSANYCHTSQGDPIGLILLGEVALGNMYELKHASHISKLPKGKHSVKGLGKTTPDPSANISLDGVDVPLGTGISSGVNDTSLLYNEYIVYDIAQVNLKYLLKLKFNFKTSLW
T1 sequence (Q9H2K2 849-1166): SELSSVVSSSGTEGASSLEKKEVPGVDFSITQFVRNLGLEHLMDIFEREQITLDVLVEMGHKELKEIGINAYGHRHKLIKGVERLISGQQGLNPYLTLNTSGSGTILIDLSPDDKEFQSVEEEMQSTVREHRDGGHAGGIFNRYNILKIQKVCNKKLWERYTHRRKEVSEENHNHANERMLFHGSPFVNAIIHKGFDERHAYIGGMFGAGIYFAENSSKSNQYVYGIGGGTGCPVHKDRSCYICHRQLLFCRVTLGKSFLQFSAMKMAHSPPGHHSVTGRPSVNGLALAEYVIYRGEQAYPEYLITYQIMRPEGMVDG
Sequence of tankyrase-1 enzyme (O95271 1001-1327): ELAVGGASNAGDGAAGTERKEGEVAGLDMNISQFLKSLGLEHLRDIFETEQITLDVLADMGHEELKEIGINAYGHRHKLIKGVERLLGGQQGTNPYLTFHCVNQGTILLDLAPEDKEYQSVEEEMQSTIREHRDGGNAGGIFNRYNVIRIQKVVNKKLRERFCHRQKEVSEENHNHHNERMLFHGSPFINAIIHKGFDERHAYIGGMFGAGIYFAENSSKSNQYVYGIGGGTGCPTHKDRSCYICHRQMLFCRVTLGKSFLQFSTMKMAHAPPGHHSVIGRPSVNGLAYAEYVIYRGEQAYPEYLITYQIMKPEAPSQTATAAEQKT

## N#Cc1ccc(N2CCN(Cc3ccc4c5c(c(=O)[nH]c4c3)CCCN5)CC2)nc1 [Example 2, Citrate Anhydride of 6-{4-[(5-oxo-1,2,3,4,5,6-hexahydrobenzo[h][1,6]naphthyridin-8-yl)methyl]piperazine-1-yl}nicotinonitrile]
tankyrase-1 enzyme
  pIC50: 8.37
tankyrase-2 enzyme
  pIC50: 8.97
[1]; compared to other salts
  Solubility in water (in words): remarkably excellent solubility in water
[1]; water, shake-flask shaken for 24 hours, UPLC, listed as Crystalline anhydride of citrate of Compound 1
  Water solubility: 1067 µM
[2]; Aqueous HCl solution (pH 1.1)
  Solubility (0.1 g/mL): ≤ 100 mL
[2]; DMF
  Solubility (0.1 g/mL): 8 mL
[2]; EtOH
  Solubility (0.1 g/mL): ≥ 1000 mL
[2]; MeOH
  Solubility (0.1 g/mL): ≥ 100 mL
[2]; Water
  Solubility (0.1 g/mL): ≤ 1000 mL
PARP-1 enzyme
  pIC50: 8.58
[3]; Humidity of 75%, 3 days
  Purity (%): 97.81%
[3]; Initial value
  Purity (%): 97.97%
[3]; Temperature of 40° C., humidity of 70%, 3 days
  Purity (%): 97.79%
[3]; Temperature of 50° C., 3 days
  Purity (%): 97.86%
[3]; UV 200 watt - dark
  Purity (%): 98.38%
[3]; UV 200 watt, 25° C. and 60% humidity
  Purity (%): 96.94%
[3]; Visible 1200k lux - dark
  Purity (%): 98.39%
[3]; Visible 1200k lux, 25° C. and 60% humidity
  Purity (%): 96.73%
[3]; temperature and humidity conditions of Table 5
  Stability in the temperature and humidity (in words): stable
[4]; 1 month
  Purity under long-term storage conditions (area %): 99.64%
  Purity under accelerated storage conditions (area %): 99.64%
[4]; 3 months
  Purity under long-term storage conditions (area %): 99.66%
  Purity under accelerated storage conditions (area %): 99.65%
[4]; [5]
  Long-term storage conditions (related substances) (area %): 0.28%
  Accelerated storage conditions (related substances) (area %): 0.24%
[4]; 6 months
  Purity under long-term storage conditions (area %): 99.58%
  Purity under accelerated storage conditions (area %): 99.54%
[4]; [6]
  Long-term storage conditions (related substances) (area %): 0.29%
  Accelerated storage conditions (related substances) (area %): 0.28%
[4]; 9 months
  Long-term storage conditions (related substances) (area %): 0.31%
  Purity under long-term storage conditions (area %): 99.67%
[4]; 12 months
  Long-term storage conditions (related substances) (area %): 0.29%
  Purity under long-term storage conditions (area %): 99.72%
[4]; 18 months
  Long-term storage conditions (related substances) (area %): 0.33%
  Purity under long-term storage conditions (area %): 99.73%
[4]; 24 months
  Long-term storage conditions (related substances) (area %): 0.34%
  Purity under long-term storage conditions (area %): 99.74%
[4]; 30 months
  Long-term storage conditions (related substances) (area %): 0.34%
[4]; 36 months
  Long-term storage conditions (related substances) (area %): 0.30%
  Purity under long-term storage conditions (area %): 99.73%
[4]; initial
  Purity under long-term storage conditions (area %): 99.66%
  Purity under accelerated storage conditions (area %): 99.66%
[4]; [7]
  Long-term storage conditions (related substances) (area %): 0.26%
  Accelerated storage conditions (related substances) (area %): 0.26%
